# Several values for one entry are separate records, joined by “and”; a condition that tells them apart may be missing. Equal entries are not always repeated.
# What was measured:
# [1] = test system: subjects with idiopathic PD with LIDs
# Experimental: (§1) At the time the study was performed (2009), there was no FDA accepted instrument for measuring treatment efficacy for LIDs. Therefore, several secondary objectives were utilized to assess efficacy including the Unified Dyskinesia Rating Scale (UDysRS).
# (§2) Efficacy was measured with the Unified Dyskinesia Rating Scale (UDysRS), a semi-quantitative assessment, FDA-validated instrument to assess […] dyskinesia in PD. […] Dosing was begun at 1 mg every 6 hours to a final dose of 24 mg per day. Patients who tolerated a total daily dose of at least 16 mg per day continued in the study.
# (§3) LIDs were assessed by the UDysRS, the main measure of LIDs (Table 12). […] The study was conducted in accordance with the Declaration of Helsinki and Good Clinical Practice Guidelines. All sites received approval from an institutional review board and written informed consent was obtained from each patient prior to participation.
# The efficacy variables for LIDs were the mean change from baseline to week 10 in the UDysRS total score; UDysRS sub-scores (Table 12). An analysis of covariance (ANCOVA) combined features of regression and analysis of variance (ANOVA). In addition to the descriptive summary of each variable from baseline to endpoint, Least Square (LS) means standard errors and 95% Confidence intervals (CI) of each group, and the difference of LS means between the 2 treatment groups and its 95% CI are presented. A similar analysis was applied to comparisons between UPDRS Part II, UPDRS Part III.
# [2] = test system: subjects with idiopathic PD with LIDs; remark: listed apart in the source
# Experimental: as §1
# A total of 65 male and female subjects with idiopathic PD with LIDs were randomized in the study. The study consisted of 4 phases (FIG. 6A): screening phase (up to 3 weeks), double-blind treatment phase (10 weeks), taper phase (2 weeks), and follow-up phase (2 weeks). The approximate duration of the study for each subject was 17 weeks. […] During the double-blind treatment phase, dosing was begun at Visit 0 at 1 mg every 6 hours (total daily dose [TDD]=4 mg/day) and escalated upwards at 2-week intervals as follows: 2 mg every 6 hours (TDD=8 mg/day) at Visit 1 (Week 2); 4 mg every 6 hours (TDD=16 mg/day) at Visit 2 (Week 4); 6 mg every 6 hours (TDD=24 mg/day) at Visit 3 (Week 6). Subjects were maintained on 24 mg/day for 4 weeks. The subsequent taper phase (2 weeks total), beginning at Visit 4 (Week 10), consisted of 9 days of drug taper and 5 days off drug prior to Visit 5 (final safety visit). […] Ondansetron was provided by the sponsor and dispensed with each dose escalation step with instructions to use it for nausea and vomiting only during the first 4 days following dose initiation or escalation. […] No other dose down-titration was allowed.
# as §2
# Subjects were maintained on 24 mg/day for 4 weeks. The subsequent taper phase (2 weeks total), beginning at visit 4 (Week 10), consisted of 9 days of drug taper and 5 days off drug prior to Visit 5 (final safety visit). […] No other down-titration was allowed.
# as §3
smiles,measurement,setting,value
"CN1CCCC1c1cccnc1.O=C(O)C(O)C(O)C(=O)O (stereo not shown) [NP002, Nicotine Bitartrate]","UDysRS Evaluation of Dyskinesias on Ambulation, Difference LS Means","[1]; NP002 vs placebo, p 0.011",−3.7 +/− 1.9
same,"UDysRS Evaluation of Dyskinesias on 7 Body Parts, Difference LS Means","[1]; NP002 vs placebo, p 0.062",−2.8 +/− 2.6
same,"Total Score UDysRS, Difference LS Means","[1]; NP002 vs placebo, p 0.092",−6.7 +/− 4.1
same,"UDysRS Evaluation of Dyskinesias on Dressing, Difference LS Means","[1]; NP002 vs placebo, p 0.139",−2.1 +/− 1.4
same,"UDysRS Evaluation of Dyskinesias on Drinking, Difference LS Means","[1]; NP002 vs placebo, p 0.171",−2.4 +/− 1.7
same,"UDysRS Evaluation of Dyskinesias on Communication, Difference LS Means","[1]; NP002 vs placebo, p 0.189",−1.9 +/− 1.4
same,UDysRS total score (primary outcome of dyskinesia) vs placebo,[1]; Week 10,statistical trend towards improvement
same,reduction (improvement) in UDysRS ambulation subtest,"[1]; baseline to week 10, p=0.011 vs placebo",46% and 46.3%
same,reduction in LIDs on the Total UDysRS,"[1]; baseline to week 10, p=0.09 vs placebo",29%
same,"Total Score UDysRS, Baseline","[1]; before treatment, n=35",51.7 +/− 16.9
same,"UDysRS Evaluation of Dyskinesias on 7 Body Parts, Baseline","[1]; before treatment, n=35",13.5 +/− 5.4
same,"UDysRS Evaluation of Dyskinesias on Ambulation, Baseline","[1]; before treatment, n=35",9.5 +/− 6.0
same,"UDysRS Evaluation of Dyskinesias on Communication, Baseline","[1]; before treatment, n=35",10.5 +/− 4.8
same,"UDysRS Evaluation of Dyskinesias on Dressing, Baseline","[1]; before treatment, n=35",11.3 +/− 6.2
same,"UDysRS Evaluation of Dyskinesias on Drinking, Baseline","[1]; before treatment, n=35",9.1 +/− 5.6
same,physician reported outcomes per UDysRS Part III vs placebo,"[1]; dyskinesia impact on ambulation, p=0.011",significant improvement
same,"Total Score UDysRS, Week 10",[1]; n=27,36.4 +/− 16.1
same,"UDysRS Evaluation of Dyskinesias on Ambulation, Week 10",[1]; n=27,5.1 +/− 5.3
same,"UDysRS Evaluation of Dyskinesias on Communication, Week 10",[1]; n=27,7.0 +/− 5.0
same,"UDysRS Evaluation of Dyskinesias on Dressing, Week 10",[1]; n=27,6.9 +/−5.5
same,"UDysRS Evaluation of Dyskinesias on Drinking, Week 10",[1]; n=27,5.3 +/− 5.0
same,"Study discontinuation, primary reason adverse event, n (%)",[2]; 35 randomized,6 n (%) and 6 (17.1) n (%)
same,Constipation,[2]; N = 35,5 (14.3) n (%)
same,Diarrhea,[2]; N = 35,2 (5.7) n (%)
same,Dizziness,[2]; N = 35,7 (20.0) n (%)
same,Fatigue,[2]; N = 35,3 (8.6) n (%)
same,Headache,[2]; N = 35,2 (5.7) n (%)
same,Insomnia,[2]; N = 35,0 (0.0) n (%)
same,Nausea,[2]; N = 35,13 (37.1) n (%)
same,Nightmare,[2]; N = 35,2 (5.7) n (%)
same,Number (%) of subject with any AE,[2]; N = 35,26 (74.3) n (%)
same,Pain,[2]; N = 35,3 (8.6) n (%)
same,Pain in extremity,[2]; N = 35,2 (5.7) n (%)
same,Tremor,[2]; N = 35,2 (5.7) n (%)
same,Vomiting,[2]; N = 35,4 (11.4) n (%)
same,"Subjects who required dose reduction or discontinuation of study treatment, n (%)","[2]; because of adverse events, 35 randomized",7 (20.0) n (%)
same,serum cotinine levels,[2]; compliance check,paralleled dosing of nicotine
same,most frequent adverse event,[2]; in vivo,nausea
same,number of adverse events reported,[2]; in vivo,45
same,overall safety and tolerability,"[2]; oral 4 times/day up to 24 mg/day, 10 weeks","safe and well tolerated, other than nausea"

# Reference: patent US20190307740A1, “COMPOSITIONS AND METHODS FOR TREATMENT RELATED TO FALL AND FALL FREQUENCY IN NEURODEGENERATIVE DISEASES” (Neurocea, LLC, priority 2016, published 2019)
